{"source": "patent USRE49361E1", "about": "“Fused bicyclic (hetero)aromatic compounds useful for the treatment of cancers” (JAZZ PHARMACEUTICALS IRELAND LIMITED, priority 2014, dated 2023)"}
{"system": "C-RAF-mediated ERK activation in B-RAF^WT IPC-298 cells (NRAS^Q61L)", "assay": "IPC-298 AlphaScreen SureFire pERK1/2 cellular assay", "type": "cell-based, human", "details": "1 hour treatment, in comparison to Dabrafenib", "procedure": "On day 2, compounds at a concentration of 6 mM are serially diluted 5 μl into 45 μl of 100% dimethyl sulfoxide (DMSO) six times in 96-well plates for a total of 7 dilution points. […] The cells are treated for 1 hour at 37° C. in 5% CO2. The treatment is then removed and the cells are incubated with lysis buffer containing phosphatase inhibitors for 10 minutes at room temperature with gentle shaking. […] The biotinylated antibody binds to the streptavidin-coated donor beads and the phopsho-ERK1/2 antibody binds to the acceptor beads. Plates are read on an EnVision reader (Perkin Elmer) and excitation of the beads at 680 nm with a laser induces the release of singlet oxygen molecules from the donor beads that triggers energy transfer to the acceptor beads in close proximity, producing a signal that can be measured at 570 nm. Both antibodies bind to phosphorylated ERK proteins, bringing the donor and acceptor beads into close proximity.\nAll data are analysed using the GraphPad Prism software package. Activation of ERK phosphorylation is expressed as a percentage of activation relative to the reference compound, Dabrafenib."}
{"smiles": "O=C1CCc2c(Oc3ccc4c(c3)CC(c3nc(-c5ccncc5)c[nH]3)CO4)ccnc2N1", "note": "(stereo not drawn) [Example 4, 5-[3-[4-(4-pyridyl)-1H-imidazol-2-yl]chroman-6-yl]oxy-3,4-dihydro-1H-1,8-naphthyridin-2-one]", "paradoxical activation of MAPK pathway (ERK phosphorylation) relative to Dabrafenib": "reduced paradoxical activity"}
{"smiles": "O=C1CCc2c(Oc3ccc4c(c3)CC(c3nc(-c5cccs5)c[nH]3)CO4)ccnc2N1", "note": "(stereo not drawn) [Example 7, 5-[3-[4-(2-thienyl)-1H-imidazol-2-yl]chroman-6-yl]oxy-3,4-dihydro-1H-1,8-naphthyridin-2-one]", "paradoxical activation of MAPK pathway (ERK phosphorylation) relative to Dabrafenib": "reduced paradoxical activity"}
{"smiles": "O=C1CCc2c(Oc3ccc4c(c3)CC(c3cc(-c5ccccc5)[nH]n3)CO4)ccnc2N1", "note": "(stereo not drawn) [Example 18, 5-[3-(5-phenyl-1H-pyrazol-3-yl)chroman-6-yl]oxy-3,4-dihydro-1H-1,8-naphthyridin-2-one]", "paradoxical activation of MAPK pathway (ERK phosphorylation) relative to Dabrafenib": "reduced paradoxical activity"}
{"smiles": "O=C1CCc2c(Oc3ccc4c(c3)O[C@@H](c3nc(-c5ccccc5)c[nH]3)CO4)ccnc2N1", "note": "[Example 19, 5-[[(3S)-3-(4-phenyl-1H-imidazol-2-yl)-2,3-dihydro-1,4-benzodioxin-6-yl]oxy]-3,4-dihydro-1H-1,8-naphthyridin-2-one]", "paradoxical activation of MAPK pathway (ERK phosphorylation) relative to Dabrafenib": "reduced paradoxical activity"}
{"smiles": "O=C1CCc2c(Oc3ccc4c(c3)CC(c3nc(-c5ccsc5)c[nH]3)CO4)ccnc2N1", "note": "(stereo not drawn) [Example 6, 5-[3-[4-(3-thienyl)-1H-imidazol-2-yl]chroman-6-yl]oxy-3,4-dihydro-1H-1,8-naphthyridin-2-one]", "paradoxical activation of MAPK pathway (ERK phosphorylation) relative to Dabrafenib": "reduced paradoxical activity"}
{"smiles": "O=C1CCc2c(Oc3ccc4c(c3)O[C@H](c3nc(-c5ccccc5)c[nH]3)CO4)ccnc2N1", "note": "[Example 20, 5-[[(3R)-3-(4-phenyl-1H-imidazol-2-yl)-2,3-dihydro-1,4-benzodioxin-6-yl]oxy]-3,4-dihydro-1H-1,8-naphthyridin-2-one]", "paradoxical activation of MAPK pathway (ERK phosphorylation) relative to Dabrafenib": "reduced paradoxical activity"}
